# Experimental data: patent publication US5079157A, “Novel choline oxidase and method for producing the same” (priority 1988, dated 1992)
# Read-outs that look alike come from different tables or passages of the source.
# Experiments:
# choline oxidase [1] = assay type: biochemical
# Protocol: (§1) Enzymatic activity (U/ml)=ΔA/min.×10.17×dilution ratio
# Various substances were added to the reaction mixture to be used for the determination of enzymatic activity as described in the above (2) and the inhibitory effects were examined.
# choline oxidase [2] = test: Substrate specificity of choline oxidase (authentic sample of Example 1); assay type: biochemical, Streptomyces thermoluteus subsp. fuscus C-19; conditions: substrate used in place of choline chloride; relative to choline; enzyme of Example 1; Tris-HCl pH 8.0, 37° C
# Protocol: as §1
# According to the above determination method of enzymatic activity, various substrates shown in Table 2 were used in place of choline chloride in the reaction mixture, their relative activities to choline were determined. As the enzyme, the authentic sample obtained in Example 1 hereinafter was employed.
# [3] = target: T1, choline oxidase (authentic sample S) (Saccharopolyspora hirsuta, UniProt A0A5M7BLR6); conditions: authentic sample S (Example 11)
# T1 sequence (A0A5M7BLR6 1-515): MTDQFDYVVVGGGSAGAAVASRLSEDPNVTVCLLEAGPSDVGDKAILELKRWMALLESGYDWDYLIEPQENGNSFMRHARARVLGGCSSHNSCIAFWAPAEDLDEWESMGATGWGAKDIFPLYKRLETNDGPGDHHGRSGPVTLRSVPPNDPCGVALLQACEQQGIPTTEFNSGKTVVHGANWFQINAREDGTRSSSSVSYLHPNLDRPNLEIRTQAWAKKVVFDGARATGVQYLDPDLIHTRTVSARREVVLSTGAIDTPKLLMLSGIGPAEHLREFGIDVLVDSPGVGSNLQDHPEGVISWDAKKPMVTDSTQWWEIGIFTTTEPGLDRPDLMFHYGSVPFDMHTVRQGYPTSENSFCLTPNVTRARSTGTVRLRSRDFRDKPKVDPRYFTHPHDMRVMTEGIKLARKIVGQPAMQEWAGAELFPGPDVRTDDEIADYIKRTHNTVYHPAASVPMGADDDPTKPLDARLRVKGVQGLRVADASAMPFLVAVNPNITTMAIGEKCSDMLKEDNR
# Protocol: (§2) A peroxidase (obtained from horse radish, 100 units/mg, Type I, Sigma Chemical Co., U.S.A.) is dissolved in the above mixture to obtain a reaction mixture. The reaction mixture (3.0 ml) is placed in a cuvette (d=1.0 cm) and subjected to pre-heating at 37° C. for 5 minutes. Then, the changes of absorbance at 500 nm at 37° C. are recorded by an autographic recording spectrophotometer (UV-260 Type, Shimadzu Seisakusho, Ltd.) and the changes of absorbance per minute (ΔA/min.) from the initial straight line portion are determined. The enzymatic activity is calculated by the following formula:
# [4] = system: choline oxidase (authentic sample T); conditions: authentic sample T (Example 10)
# Protocol: as §2
# [5] = additive 5 mM, without addition = 100
# [6] = additive 1.0 mM, without addition = 100
structure (smiles),measurement,setting,value
[Cl-].[Cl-].[Mg+2] [MgCl2],Relative Activity (%),choline oxidase [1]; [5],93.8%
[Cl-].[Cl-].[Zn+2] [ZnCl2],Relative Activity (%),choline oxidase [1]; [5],82.9%
[Cl-].[Li+] [LiCl],Relative Activity (%),choline oxidase [1]; [5],100%
[Cl-].[Cl-].[Co+2] [CoCl2],Relative Activity (%),choline oxidase [1]; [5],36.9%
OCCNCCO [Diethanolamine],Relative Activity (%),choline oxidase [2],0%
[Ca+2].[Cl-].[Cl-] [CaCl2],Relative Activity (%),choline oxidase [1]; [5],100%
NCCO [Monoethanolamine],Relative Activity (%),choline oxidase [2],0%
[Cl][Hg][Cl] [HgCl2],Relative Activity (%),"choline oxidase [1]; additive 0.05 mM, without addition = 100",83.3%
same,Relative Activity (%),"choline oxidase [1]; additive 0.5 mM, without addition = 100",60.1%
same,Relative Activity (%),choline oxidase [1]; [6],50.0%
CNCCO [N-methylaminoethanol],Relative Activity (%),choline oxidase [2],0%
[Cl][Mo]([Cl])([Cl])([Cl])[Cl] [MoCl5],Relative Activity (%),choline oxidase [1]; [6],18.1%
[Cl-].[Na+] [NaCl],Relative Activity (%),choline oxidase [1],100%
[Ba+2].[Cl-].[Cl-] [BaCl2],Relative Activity (%),choline oxidase [1]; [5],100%
[Cl][Mn][Cl] [MnCl2],Relative Activity (%),choline oxidase [1]; [5],100%
Cl.N [NH4 Cl],Relative Activity (%),choline oxidase [1]; [5],100%
C[N+](C)(C)CC=O [Betaine aldehyde],reactivity of the enzyme to the substrate,[3],showed reactivity
same,reactivity of the enzyme to the substrate,[4],showed reactivity
same,Relative Activity (%),choline oxidase [2],41.9%
[Cl-].[K+] [KCl],Relative Activity (%),choline oxidase [1]; [5],98.0%
